According to patent US20220241416A1, “METHODS FOR THE IDENTIFICATION OF SARM1 NADASE ACTIVITY INHIBITORS AND USES THEREOF” (Bar Ilan University, priority 2021, published 2022):
Read-outs that look alike come from different tables or passages of the source.

Assays:
hSARM1 = target: T1, hSARM1 (Homo sapiens, UniProt Q6SZW1); assay: Kinetic parameters of hSARM1, substrate inhibition fit; assay type: biochemical
T1 construct: hSARM1w.t; (26ERL . . . GPT724) that was not mutated in E642, was also expressed and isolated; 6xHis (N); TEV cleavage site (N); made in house; host or cells: HEK293F suspension cells
T1 sequence (Q6SZW1 with tags, fused parts or gaps): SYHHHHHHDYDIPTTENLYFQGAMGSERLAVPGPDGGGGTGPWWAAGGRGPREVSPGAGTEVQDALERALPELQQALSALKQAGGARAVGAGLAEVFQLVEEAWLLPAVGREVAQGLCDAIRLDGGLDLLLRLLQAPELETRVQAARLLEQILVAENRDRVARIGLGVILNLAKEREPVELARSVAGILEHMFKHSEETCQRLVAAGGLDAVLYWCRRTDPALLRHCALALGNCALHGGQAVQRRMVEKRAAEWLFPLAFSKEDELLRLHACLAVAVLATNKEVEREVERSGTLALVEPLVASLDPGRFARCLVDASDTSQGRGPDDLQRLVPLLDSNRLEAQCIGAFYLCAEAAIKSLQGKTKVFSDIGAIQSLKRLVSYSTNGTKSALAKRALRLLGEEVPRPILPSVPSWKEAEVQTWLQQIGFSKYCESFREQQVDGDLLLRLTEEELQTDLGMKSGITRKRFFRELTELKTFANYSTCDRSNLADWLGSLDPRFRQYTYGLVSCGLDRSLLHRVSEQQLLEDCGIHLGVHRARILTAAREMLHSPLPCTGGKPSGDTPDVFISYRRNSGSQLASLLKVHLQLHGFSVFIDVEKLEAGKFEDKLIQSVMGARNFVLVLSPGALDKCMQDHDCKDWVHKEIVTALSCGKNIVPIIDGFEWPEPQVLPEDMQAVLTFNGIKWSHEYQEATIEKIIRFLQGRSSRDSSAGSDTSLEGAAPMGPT
Description: (§1) FIG. 14C. […] The kinetic parameters were determined from plots of reaction velocity of NAD+ consumption versus substrate (NAD+) concentration and then fitted to the Michaelis-Menten equation (Km and Vmax) or substrate inhibition equation (Ki) using non-linear curve fit in GraphPad Prism. Kcat was calculated by dividing the Vmax with protein molar concentration.
(§2) For Vmax and Km determination, the NADase activity assay was performed with several different NAD+ substrate concentrations and sampled in constant time points. For each NAD+ concentration, linear increase zone was taken for slope (V0) calculation. All data were than fitted to the Michaelis-Menten equation using non-linear curve fit in GraphPad Prism software. Kcat was calculated by dividing the Vmax with protein molar concentration.

zfSARM1 = target: T2, zfSARM1 (Danio rerio, UniProt F1QWA8); assay: Kinetic parameters of zfSARM1, substrate inhibition fit; assay type: biochemical, Zebrafish
T2 sequence (F1QWA8 1-713): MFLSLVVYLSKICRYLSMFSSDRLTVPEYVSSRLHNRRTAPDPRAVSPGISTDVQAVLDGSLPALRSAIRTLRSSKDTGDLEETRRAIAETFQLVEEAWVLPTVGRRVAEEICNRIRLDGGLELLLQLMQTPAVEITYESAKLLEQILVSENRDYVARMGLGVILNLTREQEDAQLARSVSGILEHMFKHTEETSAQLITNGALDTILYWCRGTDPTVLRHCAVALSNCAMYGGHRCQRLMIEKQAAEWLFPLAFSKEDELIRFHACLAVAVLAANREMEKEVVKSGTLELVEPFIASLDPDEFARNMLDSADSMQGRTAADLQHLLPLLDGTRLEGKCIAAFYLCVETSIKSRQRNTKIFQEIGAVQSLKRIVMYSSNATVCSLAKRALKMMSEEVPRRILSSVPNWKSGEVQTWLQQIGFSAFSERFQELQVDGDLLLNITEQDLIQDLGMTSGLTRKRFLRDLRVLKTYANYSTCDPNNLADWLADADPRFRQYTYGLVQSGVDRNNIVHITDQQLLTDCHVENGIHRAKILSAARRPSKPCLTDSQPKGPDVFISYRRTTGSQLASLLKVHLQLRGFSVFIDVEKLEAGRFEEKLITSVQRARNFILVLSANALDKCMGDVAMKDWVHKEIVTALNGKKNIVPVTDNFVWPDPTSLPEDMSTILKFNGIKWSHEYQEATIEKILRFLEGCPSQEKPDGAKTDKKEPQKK
Description: as §1, §2

For `NC(=O)c1ccc[n+]([C@@H]2O[C@H](COP(=O)([O-])OP(=O)(O)OC[C@H]3O[C@@H](n4cnc5c(N)ncnc54)[C@H](O)[C@@H]3O)[C@@H](O)[C@H]2O)c1` [NAD+, Nicotinamide adenine dinucleotide], the Ki (hSARM1; apparent inhibition by substrate, read-out: Ki for NAD+, hSARM1) was 727 µM, the Ki (hSARM1; substrate inhibition equation, read-out: Ki, inhibition by the substrate NAD+, hSARM1) was 700 µM and the Ki (zfSARM1; apparent inhibition by substrate, read-out: Ki for NAD+, zfSARM1) was 1350 µM. The Ki (zfSARM1; substrate inhibition equation, read-out: Ki, inhibition by the substrate NAD+, zfSARM1) was 1300 µM.
